Active and inactive are the calls of the source. The calls are words filed in the database; no cut-off is given here.
Experiments:
[1] = test system: HCT-116; test: Cytotoxicity against human HCT116 cells assessed as reduction in cell viability after 48 hrs by MTT assay; assay type: functional, cell-based; settings: HCT-116, 48 h
[2] = test system: HCT-116; test: Induction of apoptosis in human HCT116 cells assessed as increase in cleaved caspase-9 protein expression after 48 hrs by Western blot analysis; assay type: functional, cell-based
[3] = test system: HCT-116; test: Induction of apoptosis in human HCT116 cells assessed as late apoptotic cells at 50 uM after 48 hrs by Annexin-V/propidium iodide staining-based flow cytometric analysis (reference value: 9.3%); assay type: functional
[4] = test system: HCT-116; test: Induction of apoptosis in human HCT116 cells assessed as increase in caspase-9 protein expression after 48 hrs by Western blot analysis; assay type: functional, cell-based
[5] = test system: HCT-116; test: Induction of apoptosis in human HCT116 cells assessed as early apoptotic cells at 10 uM after 48 hrs by Annexin-V/propidium iodide staining-based flow cytometric analysis (reference value: 4.2%); assay type: functional
[6] = test system: HCT-116; test: Induction of apoptosis in human HCT116 cells assessed as early apoptotic cells at 50 uM after 48 hrs by Annexin-V/propidium iodide staining-based flow cytometric analysis (reference value: 4.2%); assay type: functional
[7] = test system: HCT-116; test: Induction of morphological changes in human HCT116 cells assessed as cell rounding and shrinkage; assay type: functional, cell-based
[8] = test system: HCT-116; test: Induction of apoptosis in human HCT116 cells assessed as late apoptotic cells at 10 uM after 48 hrs by Annexin-V/propidium iodide staining-based flow cytometric analysis (reference value: 9.3%); assay type: functional

SMILES | IC50 [1] [µM] | other results
Cc1cc2c(c(C)c1CCO)C(=O)[C@H](C)[C@@H]2O | 253 | –
Cc1cc2c(c(C)c1CCO[C@@H]1O[C@H](CO)[C@@H](O)[C@H](O)[C@H]1O)C(=O)[C@H](C)C2 | 80.7 | –
Cc1cc2c(c(C)c1CCO)C(=O)[C@H](C)C2 | 50.1 | –
Cc1cc2c(c(C)c1CCO)C(=O)[C@@H](C)[C@@H]2O | 72.9 | –
Cc1cc2c(c(C)c1CCO)C(=O)[C@@H](C)[C@@H]2O[C@@H]1O[C@H](COC(=O)/C=C/c2ccc(O)cc2)[C@@H](O)[C@H](O)[C@H]1O | 17.2 | –
Cc1cc2c(c(CO)c1CCO)C(=O)C(C)(C)[C@@H]2O | 120 | –
Cc1cc2c(c(C)c1CCO)C(=O)[C@](C)(CO)[C@@H]2O | 106 | –
Cc1cc2c(c(C)c1CCO)C(=O)[C@@H](C)[C@@H]2O[C@@H]1O[C@H](CO)[C@@H](O)[C@H](O)[C@H]1O | 32.9 | –
CO[C@@H]1c2cc(C)c(CCO)c(C)c2C(=O)[C@H]1C | 79.4 | –
O=c1[nH]cc(F)c(=O)[nH]1 [FLUOROURACIL] | 41.9 | –
Cc1cc2c(c(C)c1CCO)C(=O)[C@@H](C)[C@@H]2O[C@@H]1O[C@H](CO)[C@@H](OC(=O)/C=C/c2ccc(O)c(O)c2)[C@H](O)[C@H]1O | 8 | Activity [2]: Dose-dependent effect; Activity [3]: 31.6%; Activity [4]: Dose-dependent effect; Activity [5]: 6.2%; Activity [6]: 17.1%; Activity [7]: Active; Activity [8]: 20.9%
Cc1cc2c(c(C)c1CCO)C(=O)C(C)(C)[C@@H]2O | 184 | –
Cc1cc2c(c(CO)c1CCO[C@@H]1O[C@H](CO)[C@@H](O)[C@H](O)[C@H]1O)C(=O)C(C)(C)[C@@H]2O | 81.2 | –

— ChEMBL document CHEMBL4020783, “Cytotoxic pterosins from Pteris multifida roots against HCT116 human colon cancer cells” (Bioorg Med Chem Lett, 2017)
